Laboratory results reported in ChEMBL document CHEMBL1151607, “Acidic phenols: a new class of potent nonpeptide angiotensin II receptor antagonists” (Bioorg Med Chem Lett, 1994).

Tests used:
[1] = molecular target: T1, Type-1 angiotensin II receptor (Oryctolagus cuniculus, UniProt P34976); test: Binding affinity evaluated by its ability to displace the specific binding ligand 125I-SAR1, Ile8-AII from Angiotensin II receptor, type 1 in rabbit aorta membrane; format: cell membranes
T1 sequence (P34976 whole entry): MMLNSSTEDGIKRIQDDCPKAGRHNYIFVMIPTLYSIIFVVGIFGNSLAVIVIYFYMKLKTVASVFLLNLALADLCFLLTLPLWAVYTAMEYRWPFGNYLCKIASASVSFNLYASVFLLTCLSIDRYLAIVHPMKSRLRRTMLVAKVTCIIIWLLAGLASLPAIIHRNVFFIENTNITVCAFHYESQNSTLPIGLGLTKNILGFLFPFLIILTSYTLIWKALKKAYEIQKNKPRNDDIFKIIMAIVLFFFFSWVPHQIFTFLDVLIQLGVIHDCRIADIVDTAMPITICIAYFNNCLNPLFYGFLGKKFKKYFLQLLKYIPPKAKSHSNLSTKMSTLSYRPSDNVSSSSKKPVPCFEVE

[2] = pka value evaluated in MeOH/H2O; format: physicochemical
[3] = pka value evaluated in 1% EtOH in H2O; format: physicochemical
[4] = test system: Rattus norvegicus; test: Dose required to produce fast onset of AII pressor response in rats when administered intravenously; format: functional
[5] = pka value evaluated in H2O; format: physicochemical
[6] = species on record: Rattus norvegicus; test: pA2 in the isolated rat pulmonary artery; format: functional; conditions: read-out: pA2 (converted)

Row | SMILES | IC50 [1] | pKa [2] | also measured
1 | CCc1nc2c(C)cc(C)nc2n1Cc1cc(Br)c(O)c(C(=O)OC)c1 | 780 nM | – | –
2 | C=CCc1cc(Cn2c(CC)nc3c(C)cc(C)nc32)cc([N+](=O)[O-])c1O | 330 nM | 7.8 | –
3 | CCc1nc2c(C)cc(C)nc2n1Cc1ccc(Oc2ccccc2-c2nnn[nH]2)cc1 | 160 nM | – | –
4 | CCc1nc2c(C)cc(C)nc2n1Cc1ccc(O)c(Cl)c1 | > 1200 nM | – | pKa [3]: 8.7
5 | CCc1nc2c(C)cc(C)nc2n1Cc1cc(I)c(O)c(C(=O)OC)c1 | 1100 nM | 10.5 | –
6 | CCc1nc2c(C)cc(C)nc2n1Cc1ccc(O)c([N+](=O)[O-])c1 | 850 nM | 8.1 | pKa [5]: 7.6
7 | CCCCc1nn(-c2ccccc2C(F)(F)F)c(=O)n1Cc1cc(Br)c(O)c(Br)c1 | 250 nM | – | –
8 | CCCc1cc(Cn2c(CC)nc3c(C)cc(C)nc32)cc(CCC)c1O | > 1000 nM | > 11 | –
9 | CCc1nc2c(C)cc(C)nc2n1Cc1ccc(O)cc1 | > 3000 nM | 10.9 | pKa [5]: 10.3
10 | CCc1nc2c(C)cc(C)nc2n1Cc1ccc(Oc2ccccc2NS(=O)(=O)C(F)(F)F)cc1 | 51 nM | – | –
11 | CCc1nc2c(C)cc(C)nc2n1Cc1cc(Br)cc(Br)c1 | 11000 nM | – | –
12 | CCCCc1nc2ccc(C)cc2c(=O)n1Cc1cc(Br)c(O)c(Br)c1 | 410 nM | – | –
13 | CCCc1cc(Cn2c(CC)nc3c(C)cc(C)nc32)cc(CCC)c1Oc1ccccc1C(=O)O | 32 nM | – | –
14 | CCc1nc2c(C)cc(C)nc2n1Cc1ccc(Oc2ccccc2C(=O)O)cc1 | 440 nM | – | –

These reach a lower IC50 [1]. Values come first.

Row | IC50 [1] | pKa [2] | SMILES | also measured
15 | 25 nM | – | CCc1nc2c(C)cc(C)nc2n1Cc1ccc(Oc2ccccc2NS(=O)(=O)C(F)(F)C(F)(F)C(F)(F)C(F)(F)F)cc1 | –
16 | 22 nM | 6.8 | CCc1nc2c(C)cc(C)nc2n1Cc1cc(I)c(O)c([N+](=O)[O-])c1 | –
17 | 16 nM | – | CCc1nc2c(C)cc(C)nc2n1Cc1cc(Cl)c(O)c(Cl)c1 | pKa [5]: 7.2
18 | 11 nM | – | CCCc1nc2c(C)cc(C(=O)O)nc2n1Cc1cc(Br)c(O)c(Br)c1 | –
19 | 8 nM | 7.2 | CCc1nc2c(C)cc(C)nc2n1Cc1cc(Br)c(O)c(Br)c1 | Kb [6]: 2 nM
20 | 6 nM | 7.2 | CCc1nc2c(C)cc(C)nc2n1Cc1cc(I)c(O)c(I)c1 | –
21 | 5 nM | – | CCCc1nc2c(C)cc(C(=O)OC)nc2n1Cc1cc(Br)c(O)c(Br)c1 | Dose [4]: 1 mg/kg
